Source: ChEMBL document CHEMBL3431459, “Roche carnitine palmitoyltransferase modulator screening data (supplementary data associated with the publication CHEMBL2216752)”
In brackets after ≈: the same amount, converted by molar mass.

Tests used:
[1] = molecular target: T1, Carnitine O-palmitoyltransferase 1, muscle isoform (Homo sapiens, UniProt Q92523); experiment: SUPPLEMENTARY: Inhibition of Carnitine palmitoyltransferase 1, muscle isoform; set-up: species or system Muscle tissue
T1 sequence (Q92523 whole entry): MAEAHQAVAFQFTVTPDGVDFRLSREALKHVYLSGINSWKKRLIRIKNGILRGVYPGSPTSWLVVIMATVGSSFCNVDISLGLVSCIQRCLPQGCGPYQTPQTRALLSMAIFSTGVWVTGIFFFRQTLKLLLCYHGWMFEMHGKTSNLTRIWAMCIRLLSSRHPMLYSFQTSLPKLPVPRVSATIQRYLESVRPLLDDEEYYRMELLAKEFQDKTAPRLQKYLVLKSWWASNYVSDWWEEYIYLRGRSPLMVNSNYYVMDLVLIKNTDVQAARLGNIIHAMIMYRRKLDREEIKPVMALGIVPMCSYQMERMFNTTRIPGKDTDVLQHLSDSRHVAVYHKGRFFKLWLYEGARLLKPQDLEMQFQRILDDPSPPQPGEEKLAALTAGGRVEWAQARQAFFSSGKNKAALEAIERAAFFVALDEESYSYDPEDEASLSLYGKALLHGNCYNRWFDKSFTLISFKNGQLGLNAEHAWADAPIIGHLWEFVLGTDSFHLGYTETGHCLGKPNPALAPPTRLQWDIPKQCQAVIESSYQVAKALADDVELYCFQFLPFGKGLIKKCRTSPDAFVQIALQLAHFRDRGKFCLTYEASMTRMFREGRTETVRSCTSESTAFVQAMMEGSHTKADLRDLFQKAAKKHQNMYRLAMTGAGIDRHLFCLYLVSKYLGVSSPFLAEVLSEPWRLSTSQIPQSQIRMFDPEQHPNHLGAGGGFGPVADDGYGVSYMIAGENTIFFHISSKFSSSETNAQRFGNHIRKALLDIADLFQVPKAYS

[2] = molecular target: T2, Carnitine O-palmitoyltransferase 2, mitochondrial (Homo sapiens, UniProt P23786); experiment: (§1) SUPPLEMENTARY: Inhibition of Carnitine palmitoyltransferase 2
T2 sequence (P23786 whole entry): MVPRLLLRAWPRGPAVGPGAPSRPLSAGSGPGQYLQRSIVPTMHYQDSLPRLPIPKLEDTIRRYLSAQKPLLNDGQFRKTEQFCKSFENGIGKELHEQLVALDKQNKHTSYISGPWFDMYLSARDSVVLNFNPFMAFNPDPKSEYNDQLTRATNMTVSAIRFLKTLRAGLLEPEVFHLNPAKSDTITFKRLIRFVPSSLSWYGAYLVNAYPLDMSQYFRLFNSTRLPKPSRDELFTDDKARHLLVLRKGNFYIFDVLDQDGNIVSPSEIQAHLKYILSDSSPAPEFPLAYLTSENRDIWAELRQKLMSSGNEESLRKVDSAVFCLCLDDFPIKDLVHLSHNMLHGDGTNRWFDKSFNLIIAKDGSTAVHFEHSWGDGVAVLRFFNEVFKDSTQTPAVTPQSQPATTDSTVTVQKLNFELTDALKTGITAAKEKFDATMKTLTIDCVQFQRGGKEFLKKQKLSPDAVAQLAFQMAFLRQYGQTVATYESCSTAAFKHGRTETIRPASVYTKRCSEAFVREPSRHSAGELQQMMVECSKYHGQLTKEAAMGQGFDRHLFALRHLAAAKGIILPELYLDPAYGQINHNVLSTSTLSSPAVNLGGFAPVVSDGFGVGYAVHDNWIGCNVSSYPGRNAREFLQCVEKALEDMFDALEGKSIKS

[3] = molecular target: T3, Carnitine O-palmitoyltransferase 2, mitochondrial (Rattus norvegicus, UniProt P18886); experiment: as §1
T3 sequence (P18886 whole entry): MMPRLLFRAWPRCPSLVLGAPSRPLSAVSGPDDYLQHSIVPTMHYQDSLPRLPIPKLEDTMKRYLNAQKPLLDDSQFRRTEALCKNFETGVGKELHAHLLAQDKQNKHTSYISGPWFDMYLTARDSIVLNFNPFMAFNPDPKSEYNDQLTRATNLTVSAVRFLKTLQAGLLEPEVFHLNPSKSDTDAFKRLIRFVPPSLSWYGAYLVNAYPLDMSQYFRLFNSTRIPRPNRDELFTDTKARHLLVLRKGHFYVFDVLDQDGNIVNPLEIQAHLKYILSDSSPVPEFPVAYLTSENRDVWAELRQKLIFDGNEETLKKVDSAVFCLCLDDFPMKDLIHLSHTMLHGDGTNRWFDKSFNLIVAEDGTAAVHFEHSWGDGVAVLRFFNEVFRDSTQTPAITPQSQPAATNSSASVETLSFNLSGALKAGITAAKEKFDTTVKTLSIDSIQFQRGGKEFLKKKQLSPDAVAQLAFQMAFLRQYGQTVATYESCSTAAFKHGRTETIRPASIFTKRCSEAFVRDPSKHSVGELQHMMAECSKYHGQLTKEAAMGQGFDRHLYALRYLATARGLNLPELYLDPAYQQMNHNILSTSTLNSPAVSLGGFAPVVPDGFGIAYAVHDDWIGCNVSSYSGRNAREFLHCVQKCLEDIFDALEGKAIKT

[4] = molecular target: T4, Carnitine O-palmitoyltransferase 1, liver isoform (Homo sapiens, UniProt P50416); experiment: (§2) SUPPLEMENTARY: Inhibition of Carnitine palmitoyltransferase 1, liver isoform
T4 sequence (P50416 whole entry): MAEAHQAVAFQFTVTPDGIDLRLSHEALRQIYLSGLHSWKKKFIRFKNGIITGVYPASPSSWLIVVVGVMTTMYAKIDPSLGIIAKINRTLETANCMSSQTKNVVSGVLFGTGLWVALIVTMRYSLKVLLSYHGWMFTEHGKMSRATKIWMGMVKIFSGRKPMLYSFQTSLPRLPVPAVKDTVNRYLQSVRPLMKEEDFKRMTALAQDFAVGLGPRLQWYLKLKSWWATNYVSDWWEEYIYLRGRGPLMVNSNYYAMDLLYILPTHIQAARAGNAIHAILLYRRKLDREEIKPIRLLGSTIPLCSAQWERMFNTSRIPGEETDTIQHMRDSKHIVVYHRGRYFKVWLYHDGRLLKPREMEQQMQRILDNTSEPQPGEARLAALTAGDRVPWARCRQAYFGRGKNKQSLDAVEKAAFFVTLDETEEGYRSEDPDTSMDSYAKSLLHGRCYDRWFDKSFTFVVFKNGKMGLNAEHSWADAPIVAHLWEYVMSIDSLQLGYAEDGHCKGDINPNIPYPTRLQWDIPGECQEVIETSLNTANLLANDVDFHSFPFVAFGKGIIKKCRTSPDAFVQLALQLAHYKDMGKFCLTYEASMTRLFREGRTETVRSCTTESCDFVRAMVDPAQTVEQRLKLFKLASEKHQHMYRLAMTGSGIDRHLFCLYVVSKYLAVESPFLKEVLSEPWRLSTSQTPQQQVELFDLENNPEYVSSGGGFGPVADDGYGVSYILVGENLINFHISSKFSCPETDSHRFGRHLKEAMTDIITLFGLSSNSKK

[5] = molecular target: T5, Carnitine O-palmitoyltransferase 1, liver isoform (Rattus norvegicus, UniProt P32198); experiment: as §2
T5 sequence (P32198 whole entry): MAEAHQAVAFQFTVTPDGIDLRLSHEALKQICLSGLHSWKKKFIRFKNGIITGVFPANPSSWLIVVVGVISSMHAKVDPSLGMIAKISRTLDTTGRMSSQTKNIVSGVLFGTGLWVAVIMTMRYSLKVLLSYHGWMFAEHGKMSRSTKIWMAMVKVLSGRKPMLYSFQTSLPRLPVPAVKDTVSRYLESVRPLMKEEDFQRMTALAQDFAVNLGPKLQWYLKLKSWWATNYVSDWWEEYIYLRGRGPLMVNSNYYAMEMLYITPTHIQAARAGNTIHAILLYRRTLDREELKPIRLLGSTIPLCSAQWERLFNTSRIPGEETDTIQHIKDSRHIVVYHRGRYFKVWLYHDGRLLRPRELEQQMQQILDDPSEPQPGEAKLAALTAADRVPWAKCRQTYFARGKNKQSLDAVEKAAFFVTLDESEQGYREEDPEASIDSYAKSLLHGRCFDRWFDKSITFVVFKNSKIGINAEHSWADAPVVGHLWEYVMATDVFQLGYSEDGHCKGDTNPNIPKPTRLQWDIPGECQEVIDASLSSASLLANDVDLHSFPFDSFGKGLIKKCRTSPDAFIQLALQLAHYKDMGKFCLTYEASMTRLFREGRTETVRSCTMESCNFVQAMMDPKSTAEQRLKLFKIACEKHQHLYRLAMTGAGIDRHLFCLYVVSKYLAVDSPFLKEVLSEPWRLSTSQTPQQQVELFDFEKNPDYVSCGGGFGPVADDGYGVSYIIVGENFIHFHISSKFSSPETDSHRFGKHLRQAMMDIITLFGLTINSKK

[6] = SUPPLEMENTARY: Lyophilisation Solubility Assay (LYSA); assay type: physicochemical; conditions: read-out: Kinetic_solubility
[7] = SUPPLEMENTARY: Lipophilicity (log D) Determination by high-throughput shake-flask; assay type: physicochemical; conditions: octanol/water
[8] = SUPPLEMENTARY: PAMPA permeability assay; assay type: physicochemical; conditions: read-out: Permeability

IC50 [1] [nM]	IC50 [2] [nM]	IC50 [3] [nM]	IC50 [4] [nM]	IC50 [5] [nM]	solubility kinetic [6] [µg/mL]	logD [7]	Papp [8] [×10⁻⁶ cm/s]	SMILES
10400	43500	41200	165	194	78 (≈ 181 µM)	3.29	1.75	O=C(COc1ccncc1)N1CCCC[C@@H]1c1nnc(-c2cccc(C(F)(F)F)c2)[nH]1
43400	> 100000	> 100000	201	282	63 (≈ 145 µM)	2.75	2.93	CC(=O)Nc1cccc(-c2nc([C@H]3CCCCN3C(=O)COc3ccccc3)n(C)n2)c1
920	1500	2500	18.8	11.2	3 (≈ 6.4 µM)	2.54	1.01	Cn1cc(S(=O)(=O)c2cccc(Cl)c2)c2cc(C(=O)Nc3ccc(C(=O)O)cc3)ccc21
35500	24300	33600	90.2	238	109 (≈ 270 µM)	2.36	3.53	O=C(COc1ccccc1)N1CCCC[C@@H]1c1noc(-c2cnc3[nH]cnc3c2)n1
> 100000	> 100000	> 100000	108	191	< 1	3.49	1.79	CC(=O)Nc1cccc(C#C[C@H]2CCCCN2C(=O)COc2ccccc2)c1
> 100000	> 100000	> 100000	50.9	327	113 (≈ 268 µM)	2.54	5.4	CC(=O)Nc1cc(-c2nc([C@H]3CCCCN3C(=O)COc3ccccc3)no2)ccn1
1720	> 100000	> 100000	125	75.9	31 (≈ 61.5 µM)	0.72	1.53	COc1ccc(Cl)cc1CN1C(=O)CSc2ccc(C(=O)Nc3nc(CC(=O)O)cs3)cc21
38600	3450	16600	59.7	105	60 (≈ 119 µM)	0.32	2.16	COc1ccc(Cl)cc1S(=O)(=O)N1COCc2ccc(C(=O)Nc3ccc(C(=O)O)cc3)cc21
3280	> 100000	> 100000	187	483	100 (≈ 193 µM)	-0.23	1.39	COc1ccc(Cl)cc1S(=O)(=O)N1COCc2ccc(C(=O)Nc3ccc(CC(=O)O)cc3)cc21
1380	> 100000	> 100000	54	82.9	7 (≈ 13.4 µM)	-0.47	1.31	COc1ccc(Cl)cc1S(=O)(=O)N1COCc2ccc(C(=O)Nc3nc(CC(=O)O)cs3)cc21
29700	> 100000	> 100000	85.8	1430	< 1	3.2	5.37	O=C(COc1ccccc1)N1CCCC[C@@H]1c1noc(C2(C(F)(F)F)CC2)n1
72900	23000	> 100000	122	630	> 509	1.84	6.21	O=C(COc1ccccc1)N1CCCC[C@@H]1c1noc(-c2cc(Cl)nnc2O)n1
> 100000	> 100000	> 100000	278	> 10000	< 1	> 3	0.3	COc1ccc(Cl)cc1CN1C(=O)OC(C)(C)c2ccc(C(=O)Nc3nccs3)cc21
> 100000	17000	> 100000	140	502	50 (≈ 112 µM)	2.25	0.47	O=C(COc1ccccc1)N1CCCC[C@@H]1c1noc(-c2ccc3[nH]c(=O)c(=O)[nH]c3c2)n1
78100	14500	> 100000	167	334	17 (≈ 42.1 µM)	2.75	6.32	O=C(COc1ccccc1)N1CCCC[C@@H]1c1nc(-c2ccc3nccn3c2)no1
